Results on one molecule are retold here after US20110076258A1, “METHODS OF MODULATING T CELL- DEPENDENT IMMUNE RESPONSES” (Converge Biotech Inc., priority 2008, published 2011).

Molecules are shown by their SMILES. Entries after “also recorded” stand apart in the source; their conditions may differ.

One test concerns ERK. The test is described as follows: ERK phosphorylation time course after CD3 stimulation, TCR signaling blocked with PP2 at 30 min. Format: cell-based, mouse. Conditions: added in combination with PP2. The method, then:
After 30 min of stimulation, cells were either left untreated (first panel on the left), or treated with the src-like kinase inhibitor PP2 either alone (second panel) or in combination with oATP (third panel) or ARL (fourth panel).
In order to distinguish between TCR dependent and independent ERK activation, TCR signaling was blocked at 30 min after CD3 activation with the tyrosine kinase inhibitor PP2, which inhibits TCR dependent Ick/fyn src-like kinase activity.

The next test relates to naïve CD4^+ T cells. The test is described as follows: IL-2 ELISA in culture supernatants, plate-bound CD3 and CD28 stimulation. Format: cell-based, mouse. Conditions: versus untreated cells, 48 h. The source says: An inhibitory effect of oATP on peripheral blood T cell proliferation has been described (Baricordi et al., Blood 87:682-690 (1996)). […] We therefore hypothesize that ATP released from activated T cell is part of an autocrine loop, which plays an essential role in productive T cell activation.
On the technique in general: An ELISA detects its analyte on a solid surface through an enzyme-linked reagent.

In a further test the test system is cd3ε^−/− mice. The experiment in a line: Inflammatory bowel disease induced by naïve CD4^+ T cells. Format: in vivo, mouse. The source says:
FIG. 8: Amelioration of inflammatory bowel disease by oATP treatment. • a) Photographs of representative mesenteric lymph nodes, spleens and colons from cd3ε^−/− mice adoptively transferred with CD4^+/CD25^+ and CD4^+ cells (see Example 5). […] Bar=1 cm • b) Histograms representing inflammation scores in animals treated as indicated (see methods section) (mean±SD; n=5, CD4^+/25^+ healthy control group; n=7, CD4^+ untreated group; n=8, CD4^+ oATP-treated group). • c) Hematoxilin/eosin (upper panels) and Alcian/PAS (lower panels) staining of colon sections from the indicated animals (all the microscopic pictures in the box were taken at the same magnification; scale bar=50 μm). […] Partial goblet cell depletion and reduction in size of Alcian-PAS-positive droplets are also noticeable (arrowheads); in mice reconstituted with CD4 cells and treated with PBS, the lamina propria is markedly expanded by inflammatory cell infiltrate with focal findings of crypt abscessation (arrow). Colonic crypts are also severely dysplastic with almost complete loss of goblet cells. • d) Cell recoveries from mesenteric lymph nodes and spleen of the indicated animals.
e) Absolute numbers of IL-2-, TNFα-, IFNγ- and IL-17-producing CD4^+ T cells in mesenteric lymph nodes from the indicated mice (mean±SD; n=5, CD4^+/25^+ healthy group; n=7, CD4^+ untreated group; n=8, CD4^+ oATP-treated group). *, P<0.05, **, P<0.001, ***, P<0.0001 • f) Absolute numbers of CD44^+CD62L^− effector/memory and CD69^+ CD4 cells recovered from mesenteric lymph nodes and spleen of the indicated group of animals (bars represent mean values).
To test oATP in a non-transgenic model of T cell-mediated inflammation, we induced inflammatory bowel disease (IBD) in T lymphopenic cd3ε^−/− mice by injecting naïve CD4^+ T cells. As a healthy control we used cd3ε^−/− mice injected with naïve CD4^+ T cells together with CD4^+CD25^+ cells comprising regulatory T cells (Treg). […] Starting at day 15 after cell transfer, the IBD group was daily injected intravenously either with PBS or oATP.

In test [1] the test system is T cells stimulated by anti-CD3 under Th17 skewing conditions. The test is described as follows: Th17 skewing conditions (TGFβ and IL-6), Foxp3 and RORγT expression. The format is cell-based. The method, then:
Treatment with oATP at 100 μM inhibits Th17 differentiation and promotes Foxp3 expression. […] The absolute number of CD4^+CD25^high cells expressing Foxp3 by FACS analysis was increased (FIG. 12B). Moreover, the de-differentiation of sorted CD4^+CD25^high natural Treg cells to the Th17 lineage following stimulation (Koenen et al., Blood 112(6):2340-2352 (2008)) was prevented by oATP at 100 μM (FIG. 12C).

The mark [2] stands for this setting: Th17 skewing conditions, oATP 100 μM.

Regarding `Nc1ncnc2c1ncn2[C@@H](C=O)O[C@@H](C=O)COP(=O)(O)OP(=O)(O)OP(=O)(O)O` [oATP], the “ERK phosphorylation / activity” value in the test with ERK is given as “significant inhibition; also recorded: almost completely abolished”. The “IL-2 in the cell culture supernatant” value in the test with naïve CD4^+ T cells is “significant reduction”. The “macroscopic intestine phenotype (thickening of the bowel wall, unformed or absent stool)” value in the test with cd3ε^−/− mice (5 weeks after reconstitution, daily i.v. from day 15) is on record as “significantly ameliorated”. Also, the “number of proinflammatory cytokine (IL-2, IFN-γ and TNF-α)-secreting cells” value with cd3ε^−/− mice (mesenteric lymph nodes) is “significantly reduced”. In the test with cd3ε^−/− mice (mouse, in vivo), the “cellularity, CD4^+ effector/memory subset (CD44^+62L^−) and CD69^+ cells in mesenteric lymph nodes and spleen” value is given as “undistinguishable from healthy controls”; the “colon histology (hematoxilin/eosin, Alcian/PAS)” value is “lamina propria is focally expanded by inflammatory cells infiltrate”; the “inflammation score versus animals injected with CD4^+ and Treg cells” value is recorded as “not significantly different”; the “number of IL-17 secreting cells” value is on record as “analogous to the number in control mice”. Further, the “spleen and mesenteric lymph nodes size” value with cd3ε^−/− mice (mouse, in vivo) is recorded as “normal in size”. The “absolute number of CD4^+CD25^high cells expressing Foxp3 (FACS)” value in test [1] (Th17 skewing conditions) is “increased”. Moreover, in test [1] (setting [2]), the “expression of Foxp3 (quantitative RT-PCR)” value is recorded as “gradually increased” and the “expression of RORγT (quantitative RT-PCR)” value is reported as “suppressing”. Also, in test [1] (oATP 100 μM), the Th17 differentiation entry is recorded as “inhibits” and the “de-differentiation of sorted CD4^+CD25^high natural Treg cells to the Th17 lineage” value was “prevented”.
